We go through 2 compounds from patent publication US10454124B2, “Highly stable phenazine derivatives for aqueous redox flow batteries” (Battelle Memorial Institute, priority 2017, dated 2019).

Molecules are shown by their SMILES. In brackets after ≈: the same amount, converted by molar mass.

What is called solubility is the dissolved amount per volume that the medium holds.

Data set [1] is described as follows: Solubility limit in 1 M NaOH. The data set is classed as physicochemical. The note with it: aqueous buffer. From the text:
In one embodiment, the phenazine derivative is present in the electrolyte at a concentration within a range of 0.01 M to 4 M. In an independent embodiment, the phenazine derivative is present in the electrolyte at a concentration within a range of from 4 M to 8 M. Certain embodiments of the phenazine derivatives provide 2 moles of electron transfer per mole of the compound, thus providing, for example, 2 M electron transfer when the phenazine derivative concentration is 1 M.

Data set [2] is described as follows: Cyclic voltammetry in 1 M NaOH. The data set is classed as physicochemical. The note with it: scan rate 100 mV/sec, 8.5 mM. On the procedure: Electrochemical Methods: Cyclic voltammetry experiments were performed with a CH Instruments model 660C potentiostat using a glassy carbon working electrode, a platinum wire counter electrode, and a Ag/AgCl reference electrode.
[…]. This potential exceeds all other aqueous organic flow battery systems reported to date, which, combining the high effective electron concentration resulted from high solubility, leads to high theoretical energy densities.

For data set [3] the following is noted: cited from earlier work.

`O=S(=O)(O)c1ccc2nc3cc(O)c(O)cc3nc2c1` [DHPS, 7,8-dihydroxy-phenazine-2-sulfonic acid] yielded a solubility in data set [1] of 1450 mM (≈ 424 mg/mL). Further, in data set [2], the “redox couple (vs. Ag/AgCl)” value is on record as −1.08 V. `c1ccc2nc3ccccc3nc2c1` [phenazine]: the solubility in water entry in data set [3] is “insoluble in water”.
